Data on 2 compounds can be found in patent US20240139104A1, “MICELLE RELEASING THERMOSENSITIVE HYDROGELS AS A THERAPEUTIC DELIVERY SYSTEM” (GEORGIA TECH RESEARCH CORPORATION, priority 2021, published 2024).

SMILES strings stand for the structures.

The subject of series [1] is B16F10-OVA tumor. Put plainly: GSNO (i.t.) and aCTLA-4 (i.p.) therapy without hydrogel, dual tumor model. In kind it is in vivo, mice. To be noted: GSNO 480 μg kg^−1 i.t. day 7; aCTLA-4 100 μg mouse^−1 i.p. day 8, 11, 14; compared to saline. How it is done: In brief, 10^5 B16F10-OVA (30 μL) was inoculated in left dorsal skin on day 0 and in right dorsal skin on day 4 to establish dual tumor model. 30 μL of saline or GSNO (480 μg kg ^−1) was administered to the left tumor on day 7 and 30 μL of aCTLA-4 (100 μg mouse^−1) was administered intraperitoneally on day 8, 11, 14.

For series [2], the system named is immune cells in blood. Kind of series: Immune cell profiles in blood (flow cytometry) after GSNO and aCTLA-4. Format: in vivo, mice. The settings on record: CD4+T, CD8+T, NKT populations. How it is done:
Immune cells in blood were collected and profiled to delineate the systemic immunity in the combinational use of GSNO and aCTLA-4 (FIG. 29). In brief, ACK lysis buffer was treated to the blood taken on day 9 to harvest immune cells in blood by removing red blood cells. All cells were stored on ice<2 h prior to use. Cells for flow cytometry were prepared by six steps with PBS, FACS buffer, or permeabilization buffer (eBioscience™ Foxp3/Transcription Factor Staining Buffer Set, Invitrogen™) wash; 2.4G2 staining on ice for 5 min, Zombie Aqua fixable viability dye staining at room temperature for 30 min, […]-MHCI-PE tetramer (NIH Tetramer Core Facility, Atlanta, Georgia) staining on ice for 15 min, antibody mixtures staining on ice for 30 min, fixing and permeabilizing with Foxp3 Fixation/Permeabilization working solution (eBioscience™ Foxp3/Transcription Factor Staining Buffer Set, Invitrogen™) on ice for 60 min, and FoxP3 staining on ice for 75 min. LSR Fortessa flow cytometry and flowJo were employed to analyze and profiles the stained cells.
(In flow cytometry, cells or beads pass a laser one at a time.)

Series [3] can be described thus: Absorption/fluorescence and photostability of IR780 exposed to daylight. Format: physicochemical. To be noted: 10% ethanol.
The test system of series [4] is B16F10-OVA tumor and TdLNs. To be noted: 15 μL of 0.016 mg mL^−1 IR780 intratumoral, IVIS 24 h after injection.

Regarding `N[C@@H](CCC(=O)N[C@@H](CSN=O)C(=O)NCC(=O)O)C(=O)O` [GSNO, S-nitrosoglutathione], in series [1], the “therapeutic effects (1º and 2º tumor growth)” value is recorded as “did not lead to any therapeutic effects”. Further, in series [2], the “systemic activation and expansion of T cell, NK and NKT in blood” value is “failed to induce systemic activation and expansion of T cell, NK and NKT response”.

With `CCCN1C(=CC=C2CCCC(C=CC3=[N+](CCC)c4ccccc4C3(C)C)=C2Cl)C(C)(C)c2ccccc21.[I-]` [IR780, IR780 iodide], the “time to complete photobleaching” value in series [3] is ≤ 24 h. Further, the “IR780 signal in injected tumor tissues and TdLNs” value in series [4] was “cleared quickly from the injected tumor tissues and exhibited negligible signals in the TdLNs”.
